The values that follow come from article PMC12362431, “Kinetic Dissection of the Reaction of Human GDP-L-Fucose Synthase” (ACS Catalysis, 2025).

Like-named read-outs stand apart in the source and are kept apart here.

The target in experiment [1] is enzyme/NADP+ (GFS/NADP+ complex) (Homo sapiens, UniProt Q13630). Put plainly: Fluorescence titration, equilibrium binding (quenching of intrinsic protein fluorescence).
Experiment [2] concerns the target T1, GFS complex with NADPH4 (Homo sapiens, UniProt Q13630).
T1 construct: made in house; host or cells: E. coli Rosetta 2(DE3)
Put plainly: Stopped-flow transient kinetic analysis of binding of GDP-L-fucose (fluorescence quenching).

The target of experiment [3] is GFS. More on the design: method as in not given. To be noted: earlier studies of GFS, source organism not given; ref not given; cited from earlier work.
Experiment [4] has as its target enzyme/NADPH4 (GFS/NADPH4 complex) (Homo sapiens, UniProt Q13630). Put plainly: Fluorescence titration, equilibrium binding (quenching of intrinsic protein fluorescence).
Experiment [5] concerns the target T2, wild-type GFS (Homo sapiens, UniProt Q13630).
T2 construct: made in house; host or cells: E. coli Rosetta 2(DE3)
Put plainly: Global simulation fitting of mechanism b to transient stopped-flow curves. The format is biochemical. To be noted: release from the ternary product complex enzyme/NADP+/GDP-L-fucose. How it is done:
Spectrofluorometric analysis of ligand binding
Fluorescence titrations of wild-type GFS in the binding of coenzyme, substrate and/or product were performed using a fluorescence spectrophotometer F-4500 (Hitachi, Ltd., Tokyo, Japan).
Emission spectra were recorded in the range 300–500 nm at 1200 nm/min with the excitation […]
25 mM NaCl, pH 8.0) without agitation (25 °C). […] The resulting fluorescence signals were plotted versus ligands concentrations and the data were fitted to a hyperbol ic equation (Eq. S6) to obtain the Kd value (Figure S8, S9; Table S3): […]
where F is the fluorescence emission, [L] is concentration of ligand, F1 is the initial and F2 is the final fluorescence signal, [E] is the enzyme subunit concentration. […]
the fluorescence measurements. […]
Standard errors for the fitted rate constants were estimated as standard deviations based on the variability observed during global fitting . The goodness of fit to the model was assessed by confidence contour analysis, in which all parameters, except for k-1, were well constrained by the data. […]

For experiment [6], the target named is apo GFS (ligand-free wild-type GFS) (Homo sapiens, UniProt Q13630). Description: Fluorescence titration, equilibrium binding (quenching of intrinsic protein fluorescence). To be noted: for Kd: apo GFS 0.40 μM, 10 mM Tris, 25 mM NaCl, pH 8.0, 25 °C.
Experiment [7] deals with T2, wild-type GFS. Put plainly: Steady-state initial-rate kinetics and primary KIE (NADPH consumption, absorbance at 340 nm). The format is biochemical.
Experiment [8] addresses T3, GFS variant Y143F (Homo sapiens, UniProt Q13630, Y143F).
T3 construct: made in house; host or cells: E. coli Rosetta 2(DE3)
The experiment is described as above. The format is biochemical.

The test system of experiment [9] is GFS. Also noted: method as in not given. The conditions noted are these: earlier studies of GFS, source organism not given; ref not given; cited from earlier work. The source holds these as a separate data set.
Experiment [10] concerns the target T4, GFS variant C116S (Homo sapiens, UniProt Q13630, C116S).
T4 construct: made in house; host or cells: E. coli Rosetta 2(DE3)
Put plainly: Steady-state initial-rate kinetics and primary KIE (NADPH consumption, absorbance at 340 nm). The format is biochemical. To be noted: deuterated vs unlabeled substrate/coenzyme, pH 8.0, 37 °C, in 1/s.

The target of experiment [11] is T5, GFS variant H186K (Homo sapiens, UniProt Q13630, H186K).
T5 construct: made in house; host or cells: E. coli Rosetta 2(DE3)
The description is as above. In kind it is biochemical.

Where [12] appears, read: nonlinear fit of kobs with eq S15.
Where [13] appears, read: deuterated vs unlabeled substrate/coenzyme, pH 8.0, 37 °C, in 1/s.
The mark [14] stands for this setting: varied substrate 3, pH 8.0, 37 °C.

T1 sequence (Q13630 8-321, one chain of several): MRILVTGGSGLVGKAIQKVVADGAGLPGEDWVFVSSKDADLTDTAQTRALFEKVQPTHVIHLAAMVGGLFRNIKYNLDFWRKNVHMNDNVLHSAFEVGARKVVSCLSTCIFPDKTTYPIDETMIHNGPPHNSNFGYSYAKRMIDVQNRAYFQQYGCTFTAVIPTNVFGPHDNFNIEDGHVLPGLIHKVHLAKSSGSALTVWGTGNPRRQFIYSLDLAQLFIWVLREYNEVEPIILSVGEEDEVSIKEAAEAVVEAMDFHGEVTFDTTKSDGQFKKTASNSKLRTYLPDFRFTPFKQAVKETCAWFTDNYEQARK
T2 sequence (Q13630 8-321): as the sequence (Q13630 8-321, one chain of several) above
Sequence of apo GFS (ligand-free wild-type GFS) (Q13630 8-321): as the sequence (Q13630 8-321, one chain of several) above
T5 sequence (Q13630 whole entry H186K): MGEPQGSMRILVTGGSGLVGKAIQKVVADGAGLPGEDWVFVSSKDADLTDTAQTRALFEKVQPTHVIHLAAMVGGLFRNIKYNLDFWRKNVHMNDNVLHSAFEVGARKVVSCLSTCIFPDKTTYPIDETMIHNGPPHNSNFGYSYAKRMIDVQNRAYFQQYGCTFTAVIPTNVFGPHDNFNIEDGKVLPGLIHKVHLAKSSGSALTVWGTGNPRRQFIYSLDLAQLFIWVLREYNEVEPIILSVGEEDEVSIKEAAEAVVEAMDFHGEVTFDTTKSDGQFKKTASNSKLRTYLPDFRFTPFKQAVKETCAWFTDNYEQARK
Sequence of enzyme/NADPH4 (GFS/NADPH4 complex) (Q13630 8-321, one chain of several): as the sequence (Q13630 8-321, one chain of several) above
T3 sequence (Q13630 whole entry Y143F): as the sequence (Q13630 whole entry H186K) above, with Y143F, K186H counted along it
Sequence of enzyme/NADP+ (GFS/NADP+ complex) (Q13630 8-321, one chain of several): as the sequence (Q13630 8-321, one chain of several) above
T4 sequence (Q13630 whole entry C116S): as the sequence (Q13630 whole entry H186K) above, with C116S, K186H counted along it

As for `CC1OC(OP(=O)(O)OP(=O)(O)OCC2OC(n3cnc4c(=O)[nH]c(N)nc43)C(O)C2O)C(O)C(O)C1O` [1a, GDP-L-fucose], the Kd in experiment [1] was 13 ± 4 µM; in experiment [2] (global simulation fit, range 3–12 μM, read-out: Kd (two-step binding)), 7 µM; in [2] (nonlinear fit of kobs with eq S15, GFS 2.0 μM, NADPH4 15.0 μM, pH 8.0, 37 °C, read-out: Kd (encounter complex, two-step binding)), 4 ± 2 µM; in experiment [4], 1.1 ± 0.2 µM. Further, the dissociation rate constant (koff) in experiment [2] (global simulation fit, lower bound only, read-out: koff (association step)) is at least 11 s⁻¹. Besides, the on-rate (kon) in experiment [2] (global simulation fit, lower bound only, read-out: kon (association step)) is at least 2e+06 M⁻¹ s⁻¹. The “k′1” value in experiment [2] (global simulation fit, range 0.3–0.8 s^–1) is recorded as 0.6 s^–1. In addition, in experiment [2] (global simulation fit, range 0.5–1.4 s^–1), the “k′–1” value is 0.9 s^–1. Besides, in experiment [2] (setting [12]), the “k′1 (forward conformational change)” value amounted to 0.6 ± 0.1 s⁻¹. In [2] (setting [12]), the “k′–1 (reverse conformational change, GDP-L-fucose release rate)” value is listed as 0.5 ± 0.1 s^–1. Moreover, the inhibition constant Ki in [3] was 55.3 µM. Also, the “tighter binding to enzyme-NADPH4 than to enzyme-NADP+” value in [4] (ratio of Kd values) was around 12 fold. In addition, the “rate constant for the release” value in experiment [5] is 12 s^–1.

`Nc1nc2c(ncn2[C@@H]2O[C@H](COP(=O)(O)OP(=O)(O)O)[C@@H](O)[C@H]2O)c(=O)[nH]1` [GDP, guanosine 5′-diphosphate]: the Ki in experiment [3] was 60.5 µM.

As to `NC(=O)c1ccc[n+]([C@@H]2O[C@H](COP(=O)([O-])OP(=O)(O)OC[C@H]3O[C@@H](n4cnc5c(N)ncnc54)[C@H](OP(=O)(O)O)[C@@H]3O)[C@@H](O)[C@H]2O)c1` [NADP+], binding in [6] was characterised by a dissociation constant (Kd) of 8 ± 2 µM. The “rate constant for the release” value in experiment [5] was 26 s^–1.

Take `NC(=O)C1=CN([C@@H]2O[C@H](COP(=O)(O)OP(=O)(O)OC[C@H]3O[C@@H](n4cnc5c(N)ncnc54)[C@H](OP(=O)(O)O)[C@@H]3O)[C@@H](O)[C@H]2O)CCC1` [NADPH4, 1″,4″,5″,6″-tetrahydro-NADPH]: binding in [6] was characterised by a dissociation constant (Kd) of 0.3 ± 0.1 µM. Also, the “tighter binding to the free GFS than NADP+” value in experiment [6] (ratio of Kd values) amounted to 27 fold.

For `NC(=O)C1=CN([C@@H]2O[C@H](COP(=O)(O)OP(=O)(O)OC[C@H]3O[C@@H](n4cnc5c(N)ncnc54)[C@H](OP(=O)(O)O)[C@@H]3O)[C@@H](O)[C@H]2O)C=CC1` [NADPH], in experiment [7] (varied NADPH, substrate 3 100 μM, pH 8.0, 37 °C), the Michaelis constant (Km) stood at 0.75 ± 0.03 µM.

Turning to `[2H][C@@H]1C=CN([C@@H]2O[C@H](COP(=O)(O)OP(=O)(O)OC[C@H]3O[C@@H](n4cnc5c(N)ncnc54)[C@H](OP(=O)(O)O)[C@@H]3O)[C@@H](O)[C@H]2O)C=C1C(N)=O` [[4S-^2H]-NADPH], the “kinetic isotope effect on kcat (Dkcat)” value in experiment [8] (setting [13]) was found to be 3.9 ± 0.3; in [10], 1.0 ± 0.2; in experiment [7] (setting [13]), 1.03 ± 0.05; in experiment [11] (setting [13]), 1.12 ± 0.08. Moreover, the “kinetic isotope effect on kcat/Km, Dkcat/Km^3” value turned out to be 4 ± 1 in [8] (setting [14]), 1.4 ± 0.4 in experiment [7] (setting [14]) and 1.1 ± 0.5 in experiment [11] (setting [14]). For the same compound, in experiment [9], the “KIE on the enzymatic rate” value is reported as 1.4. In addition, the “kinetic isotope effect on kcat/Km, Dkcat/Km^NADPH” value in experiment [7] (varied coenzyme, substrate 3 100 μM, pH 8.0, 37 °C) amounted to 1.6 ± 0.2.
